Results on 16 molecules are retold here after patent US20110077248A1, “IMIDAZOPYRIDINE AND RELATED ANALOGS AS SIRTUIN MODULATORS” (Sirtris Pharmaceuticals, Inc., priority 2008, published 2011).

This experiment concerns the target T1, SIRT1 (Homo sapiens, UniProt Q96EB6).
T1 construct: His-tag (N); made in house; host or cells: E. coli BL21(DE3), T7-promoter vector
T1 sequence (Q96EB6 1-747): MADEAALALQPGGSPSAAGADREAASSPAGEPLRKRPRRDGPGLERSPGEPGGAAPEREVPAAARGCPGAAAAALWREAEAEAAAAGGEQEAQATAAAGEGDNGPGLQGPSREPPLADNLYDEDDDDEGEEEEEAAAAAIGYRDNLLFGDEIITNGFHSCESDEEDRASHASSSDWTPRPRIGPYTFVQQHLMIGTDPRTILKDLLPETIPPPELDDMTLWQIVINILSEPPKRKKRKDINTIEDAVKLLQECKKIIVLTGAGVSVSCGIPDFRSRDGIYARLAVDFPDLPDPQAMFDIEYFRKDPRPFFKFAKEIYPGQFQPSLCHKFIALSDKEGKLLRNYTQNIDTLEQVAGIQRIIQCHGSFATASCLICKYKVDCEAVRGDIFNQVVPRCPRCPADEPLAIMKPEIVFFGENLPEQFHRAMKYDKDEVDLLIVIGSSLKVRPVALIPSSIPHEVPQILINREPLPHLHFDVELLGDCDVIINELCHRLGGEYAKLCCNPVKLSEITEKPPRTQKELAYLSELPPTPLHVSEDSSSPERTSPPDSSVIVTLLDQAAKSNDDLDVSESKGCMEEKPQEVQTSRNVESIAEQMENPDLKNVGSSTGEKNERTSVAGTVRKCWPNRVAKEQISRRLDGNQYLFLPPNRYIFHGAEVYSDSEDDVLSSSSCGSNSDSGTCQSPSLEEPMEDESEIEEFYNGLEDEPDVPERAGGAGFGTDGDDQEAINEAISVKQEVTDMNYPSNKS
Nature of the experiment: Mass spectrometry based assay for modulators of SIRT1 activity (deacetylation of p53-based acetylated peptide). The following applies: for EC1.5: concentration of test compound that results in 150% activation of SIRT1, 0.5 μM peptide substrate, 120 μM βNAD+, 10 nM SIRT1, 25 min, 25° C.; for Emax: percent maximum fold activation of SIRT1. Type of experiment: biochemical. The procedure, abridged: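 Reaction: 10 nM His-tagged human SIRT1 (E. coli-expressed) with 0.5 μM 5TMR-labelled acetylated p53-derived peptide and 120 μM NAD+, 25 min at 25 °C, pH 8 Tris-acetate buffer; formic acid quench. Deacetylation quantified by mass spectrometry against a DMSO control; EC1.5 = concentration giving 150% activation.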

A value given as a limit tells only on which side of the number the result lay.

On to `Cc1ncccc1-c1nc2c(C(=O)Nc3nc(CN4CCOCC4)cs3)cccn2n1` [Compound 241], for which the EC1.5 entry is listed as “B (EC1.5 1-25 uM)” and the Emax was < 200%.
The corresponding values for `O=C(Nc1ccccn1)c1nccn2cc(-c3ccc(F)cc3C(F)(F)F)nc12` [Compound 189] are “B (EC1.5 1-25 uM)” and > 200%.
In the case of `O=C(Nc1nc(CN2CCOCC2)cs1)c1cccn2nc(-c3cccc(C(F)(F)F)c3)nc12` [Compound 177, N-(4-(morpholinomethyl)thiazol-2-yl)-2-(3-(trifluoromethyl)phenyl)-[1,2,4]triazolo[1,5-a]pyridine-8-carboxamide], the EC1.5 result is listed as “B (EC1.5 1-25 uM)” and the Emax is > 200%.
In the case of `Cc1ccc(-c2cn3ccnc(C(=O)Nc4nc(CN5CCOCC5)cs4)c3n2)cn1` [Compound 164], the EC1.5 result is recorded as “B (EC1.5 1-25 uM)” and the Emax was < 200%.
Take `O=C(Nc1cccc(CN2CCOCC2)n1)c1nccn2cc(-c3ccccc3C(F)(F)F)nc12` [Compound 259]: the EC1.5 result was “A (EC1.5<1.0 uM)” and the Emax was > 200%.
Regarding `O=C(Nc1cccc(OCC(O)CO)c1)c1cccn2cc(-c3cccc(OC(F)(F)F)c3)nc12` (centres unmarked) [Compound 136], the EC1.5 entry is reported as “B (EC1.5 1-25 uM)” and the Emax is > 200%.
Turning to `O=C(Nc1nc(CN2CCOCC2)cs1)c1cccn2cc(-c3cccc(Cl)c3)nc12` [Compound 233], the EC1.5 entry is given as “A (EC1.5<1.0 uM)” and the Emax was > 200%.
For the molecule `Cc1ccc(-c2cn3ccnc(C(=O)Nc4nccs4)c3n2)cn1` [Compound 162], the EC1.5 result is “C (EC1.5>25 uM)” and the Emax is < 200%.
Consider `Cc1ncccc1-c1nc2c(C(=O)Nc3nccs3)cccn2n1` [Compound 239, 2-(2-methylpyridin-3-yl)-N-(thiazol-2-yl)-[1,2,4]triazolo[1,5-a]pyridine-8-carboxamide], for which the EC1.5 result is “C (EC1.5>25 uM)” and the Emax was < 200%.
`O=C(Nc1ccccn1)c1cccn2cc(-c3cccc(CN4CCOCC4)c3)nc12` [Compound 255]: the EC1.5 result is “A (EC1.5<1.0 uM)” and the Emax was > 200%.
For `O=C(Nc1cccc(CN2CCOCC2)n1)c1cccn2cc(-c3cccc(OC(F)(F)F)c3)nc12` [Compound 161], the EC1.5 result is reported as “A (EC1.5<1.0 uM)” and the Emax is > 200%.
On to `O=C(Nc1ccccn1)c1cccn2cc(-c3cccc(CN4CCCC4)c3)nc12` [Compound 257], for which the EC1.5 entry is listed as “B (EC1.5 1-25 uM)” and the Emax was > 200%.
For `O=C(Nc1cccn2cc(-c3cccc(-c4ccccc4)c3)nc12)c1cscn1` [Compound 121] the same measures were “C (EC1.5>25 uM)” and < 200%.
With `O=C(Nc1nc(CN2CCOCC2)cs1)c1cccn2cc(-c3cccc(F)c3F)nc12` [Compound 231], the EC1.5 result is “B (EC1.5 1-25 uM)” and the Emax was < 200%.
As for `O=C(Nc1ccccn1)c1nccn2cc(-c3cccc(OC(F)(F)F)c3)nc12` [Compound 143], the EC1.5 entry is given as “C (EC1.5>25 uM)” and the Emax was < 200%.
In the case of `O=C(Nc1ccccn1)c1cccn2cc(-c3ccc(C(F)F)cc3)nc12` [Compound 203], the EC1.5 result is on record as “C (EC1.5>25 uM)” and the Emax was < 200%.

As usually defined, the Emax is the size of the effect at its maximum, as opposed to the concentration needed.
